Results as given in US20240041898A9, “NEUROSTEROIDS AND ENANTIOMERS THEREOF FOR THE PREVENTION AND TREATMENT OF NEURODEGENERATIVE CONDITIONS” (priority 2019, published 2024).
Where “and” joins values, the source holds several entries; their conditions need not be identical. Equal values may be shown once.

Tests used:
LC3-II = assay: Rat in vivo OHT model, Western blot of LC3-II; conditions: in vivo OHT eyes, 3 weeks after microbead injection, relative units, control = 1.00; for LC3-II expression (FIG. 6B), individual experiments 1-4: single values
Description: (§1) Example 7. Rat in vivo OHT model induced by intracameral injection of microbeads—For induction of ocular hypertension (OHT) in vivo, sterile 6 μm polystyrene microbeads were injected into the anterior chamber of the left eye of each animal using a single-step, sclero-corneal tunnel approach with a 35G nanoneedle (FIG. 4A). […] After stabilization of elevated IOP, animals were randomly divided into 3 groups (non-treated OHT, AlloP injection, and ent-AlloP injection). AlloP and ent-AlloP were administered as a one-time intravitreal injection one week following bead injection. Non-treated OHT animals received sterile vehicle intravitreally. As a further control, vehicle was intravitreally injected 7 days after intracameral administration of 10 μl of PBS. Three weeks after bead injections, IOP was 26.7±3.7 mmHg in non-treated OHT eyes compared to 9.9±0.9 mmHg in control eyes.
Rat in vivo OHT model—8-week old male Sprague-Dawley rats were deeply anesthetized with an intraperitoneal injection of a mixture of medetomidine hydrochloride (Cat #133-17474, CAS. No 86347-15-1, Wako Pure Chemical Industries Ltd., Osaka, Japan, 0.15 mg/kg), midazolam (Cat #135-13791, CAS. No 58786-99-5, Wako Pure Chemical Industries Ltd., 2 mg/kg), and butorphanol tartrate (Cat #021-19001, CAS. No […], Wako Pure Chemical Industries Ltd., 2.5 mg/kg), and intraocular pressure was increased unilaterally to approximately 35 mmHg, by intracameral injection of polystyrene microbeads using a single-step, sclero-corneal tunnel approach with a 35G-gauge nanoneedle (#LNAN-3505LM, Saito Medical Instruments Inc., Tokyo, Japan) connected to 100 μl WPI Nanofil 100 microsyringe (World Precision Instruments, Inc., Sarasota, FL). Sterile 6 μm polystyrene microbeads in a 1×10^6 microbeads/ml solution (Molecular Probes, Eugene, OR, USA) were concentrated to obtain a 1×10^7 microbeads/ml solution. […] Ocular hypertension was monitored preoperatively, and at 3 days, 1 week, 2 weeks or 3 weeks after the beads were injected. IOP was measured using a laboratory tonometer (TonoLab, Icare, Finland). […]

p62 = assay: Rat in vivo OHT model, Western blot of p62; conditions: in vivo OHT eyes, 3 weeks after microbead injection; relative units, control = 1.00; single values
Description: as §1, with “eyes. […]” for “eyes.”

SMILES | LC3-II expression (FIG. 6B), individual experiments 1-4 (LC3-II) | p62 expression (FIG. 6D), individual experiments 1-4 (p62) | LC3-II expression (FIG. 6B), Average (LC3-II; Average of 4)
CC(=O)[C@@H]1CC[C@@H]2[C@H]3CC[C@@H]4C[C@@H](O)CC[C@@]4(C)[C@@H]3CC[C@]21C [ent-AlloP, ent-allopregnanolone] | 4.96 and 4.97 and 4.27 and 5.04 | 0.92 and 0.91 and 1.00 and 1.61 | –
CC(=O)[C@H]1CC[C@H]2[C@@H]3CC[C@H]4C[C@H](O)CC[C@]4(C)[C@H]3CC[C@]12C [AlloP, allopregnanolone] | 2.73 and 3.32 and 2.82 and 3.11 | 1.73 and 1.82 and 2.90 and 2.53 | 3.00
